Assay results taken from paper PMC6384758, “Profiling and Pharmacokinetic Studies of Alkaloids in Rats After Oral Administration of Zanthoxylum nitidum Decoction by UPLC-Q-TOF-MS/MS and HPLC-MS/MS” (Molecules, 2019).
Read-outs that look alike come from different tables or passages of the source.

How the values were obtained:
[1] = Pharmacokinetic study in rats after oral administration of Z. nitidum decoction (HPLC-MS/MS); type: in vivo, Sprague–Dawley rats; conditions: for AUC(0-t) / AUC(0-inf) / Cmax / half-life / Tmax: Sprague-Dawley
Method: The HPLC analysis performed on a Surveyor plus HPLC system (Thermo Fisher Scientific, Waltham, MA, USA). The separation was executed by a Thermo Accucore aq C18 column (100 × 2.1 mm, 2.6 μm) (Thermo Fisher Scientific, Waltham, MA, USA) maintained at 30 °C. The mobile phase consisted of Solvent A (0.1% formic acid solution) and Solvent B (0.1% formic acid acetonitrile). The flow rate was 0.3 mL/min. The gradient program was as follows: 5–10% B at 0–5 min; 10–100% B at 5–15 min; 100–5% B at 15–15.1 min; 5% B at 15–20 min.
MS data were achieved on a triple-quadrupole mass spectrometer: TSQ Quantum Access (Thermo Fisher Scientific, Waltham, MA, USA) with electrospray ionization (ESI) source in positive mode. The instrument parameters were as follows: spray voltage at 3000 V, sheath gas and auxiliary gas with a flow of 30 and 5 arbitrary units, capillary temperature at 350 °C, collision gas pressure at 1.0 mTorr, skimmer offset at 2 V. The selected reaction monitoring (SRM) transitions used for MS analysis were as follows: m/z 342→297 for magnoflorine, 370→188 for α-allocryptopine, 260→227 for skimmianine, 356→192 for IS; the collision energies at 15 eV for magnoflorine, 30 eV for α-allocryptopine, skimmianine and IS. The data acquisition and processing was performed with Xcalibur 2.0 software (Thermo Fisher Scientific, Waltham, MA, USA).
100 μL plasma sample, 10 μL IS solution (200 ng/mL) and 300 μL acetonitrile were added to a 1.5 mL eppendorf tube and vortex-mixed for 5 min, then centrifuged at 13,000 (15,493× g) rpm for 10 min. The supernatant was transferred into another eppendorf tube and evaporated to dryness at 35 °C in vacuum using SpeedVac Concentration ((RVC 2-18, Christ). The residue was reconstituted in 100 μL acetonitrile and water (50:50, v/v) and centrifuged at 13,000 rpm (15,493× g) for 15 min.
For pharmacokinetic study, six rats were orally administered Z. nitidum decoction at a dose of 5.4 mL kg^−1 (5.4 mL decoction equal to 10.8 g crude drug) body weight. The blood samples were collected from orbital vein before dose and 0.17, 0.33, 0.67, 1, 2, 3, 4, 6, 8, 10, 12, and 24 after dose. The blood samples were then centrifuged at 3500 rpm (1274× g) for 15 min at 4 °C. The samples were stored at −80 °C. Data analysis was performed by Drug and Statistics (DAS) 2.0 software (Mathematical Pharmacology Professional Committee of China, Shanghai, China).

[2] = Stability of analytes in rat plasma under storage conditions; type: in vitro ADME
Method: The selectivity was assessed by analyzing the chromatograms of blank plasma of six different rats, a blank plasma with magnoflorine, α-allocryptopine, skimmianine and IS, and a plasma after dose. The linearity was determined by plotting the peak areas ratios (y) of each analyte to IS against the concentrations, and evaluated by least-squares linear regression. The lower limit of quantification (LLOQ) was defined as the lowest concentration point of the calibration curve (S/N > 10) with the accuracy within ±20% and precision lower than 20%. The accuracy and precision were evaluated by analyzing the six replicate QC samples on the same day (intra-day) and three consecutive days. The accuracy and precision were expressed as relative error (RE%) and relative standard deviation (RSD%), respectively. The extraction recovery was determined by comparing peak areas of the extracted QC samples with those of post-extracted spiked samples. The matrix effects was measured by calculated the analytes peak area ratios of post-extracted spiked samples to those of pure work solution. The stability was investigated by analyzing samples stability under diverse storage conditions: three freeze-thaw cycles, 8 h at 25 °C, −80 °C for 40 days and in autosampler for 24 h.

[3] = rats, oral Z. nitidum decoction

COc1ccc2c(c1O)-c1c(O)c(OC)cc3c1[C@H](C2)[N+](C)(C)CC3 [Magnoflorine, magnoflorine]
AUC(0-t) ([1]; rat plasma, oral Z. nitidum decoction 5.4 mL kg−1, Mean ± SD, n = 6, read-out: AUC0-t): 408 ± 91.3 ng·h/mL | AUC(0-inf) ([1]; rat plasma, oral Z. nitidum decoction 5.4 mL kg−1, Mean ± SD, n = 6, read-out: AUC0-∞): 438 ± 106 ng·h/mL | Cmax ([1]; rat plasma, oral Z. nitidum decoction 5.4 mL kg−1, Mean ± SD, n = 6, read-out: Cmax): 113 ± 18.8 ng/mL | half-life ([1]; rat plasma, oral Z. nitidum decoction 5.4 mL kg−1, Mean ± SD, n = 6, read-out: T1/2 (converted)): 194 ± 78.6 min | Tmax ([1]; rat plasma, oral Z. nitidum decoction 5.4 mL kg−1, Mean ± SD, n = 6, read-out: Tmax): 63 ± 42.6 min | Cmax compared with that of skimmianine [1, 3]: about ten times higher | total exposure AUC0–∞ compared among the three components (in words) [1, 3]: the largest | Stability, RE (%) ([2]; rat, 5 ng/mL): −10.00% | Stability, RE (%) ([2]; rat, 50 ng/mL): 11.03% | Stability, RE (%) ([2]; rat, 160 ng/mL): 9.16% | Stability, RE (%) ([2]; rat, 8 h, 5 ng/mL): −5.14% | Stability, RE (%) ([2]; rat, 8 h, 50 ng/mL): 6.87% | Stability, RE (%) ([2]; rat, 8 h, 160 ng/mL): 5.74% | Stability, RE (%) ([2]; rat, 24 h, 5 ng/mL): −5.59% | Stability, RE (%) ([2]; rat, 24 h, 50 ng/mL): 9.24% | Stability, RE (%) ([2]; rat, 24 h, 160 ng/mL): 4.61% | Stability, RE (%) ([2]; rat, 40 days, 5 ng/mL): 10.17% | Stability, RE (%) ([2]; rat, 40 days, 50 ng/mL): −8.92% | Stability, RE (%) ([2]; rat, 40 days, 160 ng/mL): 5.74%

COc1ccc2c(OC)c3ccoc3nc2c1OC [Skimmianine, skimmianine]
AUC(0-inf) ([1]; rat, in vivo, po): 17.1 ± 6.32 ng·h/mL | AUC(0-t) ([1]; rat, in vivo, po): 11.1 ± 2.02 ng·h/mL | Cmax ([1]; rat, in vivo, po): 8.91 ± 1.89 ng/mL | Tmax ([1]; rat, in vivo, po): 22.8 ± 7.2 min | half-life ([1]; rat, in vivo, po): 359 ± 97.2 min | Stability, RE (%) ([2]; rat, 1 ng/mL): 10.43% | Stability, RE (%) ([2]; rat, 10 ng/mL): −5.95% | Stability, RE (%) ([2]; rat, 32 ng/mL): −9.01% | Stability, RE (%) ([2]; rat, 8 h, 1 ng/mL): −9.41% | Stability, RE (%) ([2]; rat, 8 h, 10 ng/mL): 6.62% | Stability, RE (%) ([2]; rat, 8 h, 32 ng/mL): 9.51% | Stability, RE (%) ([2]; rat, 24 h, 1 ng/mL): 9.47% | Stability, RE (%) ([2]; rat, 24 h, 10 ng/mL): −4.39% | Stability, RE (%) ([2]; rat, 24 h, 32 ng/mL): −1.09% | Stability, RE (%) ([2]; rat, 40 days, 1 ng/mL): 9.69% | Stability, RE (%) ([2]; rat, 40 days, 10 ng/mL): −6.48% | Stability, RE (%) ([2]; rat, 40 days, 32 ng/mL): −4.07%

COc1ccc2c(c[n+](C)c3c4cc5c(cc4ccc23)OCO5)c1OC [chelerythrine]
absorption (in words) ([1]; preliminary experiment, rats, oral Z. nitidum decoction): poor absorption

COc1cc2c[n+](C)c3c4cc5c(cc4ccc3c2cc1OC)OCO5 [nitidine]
absorption (in words) ([1]; rat, in vivo, po): poor absorption

COc1ccc2c(c1OC)CN(C)CCc1cc3c(cc1C(=O)C2)OCO3 [α-allocryptopine]
AUC(0-t) ([1]; in vivo, rat plasma, oral Z. nitidum decoction 5.4 mL kg−1, Mean ± SD, n = 6, read-out: AUC0-t): 180 ± 96.3 ng·h/mL | AUC(0-inf) ([1]; in vivo, rat plasma, oral Z. nitidum decoction 5.4 mL kg−1, Mean ± SD, n = 6, read-out: AUC0-∞): 186 ± 98.7 ng·h/mL | Cmax ([1]; in vivo, rat plasma, oral Z. nitidum decoction 5.4 mL kg−1, Mean ± SD, n = 6, read-out: Cmax): 100 ± 49.9 ng/mL | half-life ([1]; in vivo, rat plasma, oral Z. nitidum decoction 5.4 mL kg−1, Mean ± SD, n = 6, read-out: T1/2 (converted)): 46.8 ± 10.2 min | Tmax ([1]; in vivo, rat plasma, oral Z. nitidum decoction 5.4 mL kg−1, Mean ± SD, n = 6, read-out: Tmax): 28.2 ± 7.8 min | Cmax compared with that of skimmianine [1, 3]: about ten times higher | Stability, RE (%) ([2]; rat plasma, 8 h at room temperature, 5 ng/mL, n = 6): 12.53% | Stability, RE (%) ([2]; rat plasma, 8 h at room temperature, 50 ng/mL, n = 6): −7.13% | Stability, RE (%) ([2]; rat plasma, 8 h at room temperature, 160 ng/mL, n = 6): 3.27% | Stability, RE (%) ([2]; rat plasma, 24 h at 4 °C, 5 ng/mL, n = 6): 2.99% | Stability, RE (%) ([2]; rat plasma, 24 h at 4 °C, 50 ng/mL, n = 6): −6.21% | Stability, RE (%) ([2]; rat plasma, 24 h at 4 °C, 160 ng/mL, n = 6): 7.75% | Stability, RE (%) ([2]; rat plasma, 40 days at −80 °C, 5 ng/mL, n = 6): 8.59% | Stability, RE (%) ([2]; rat plasma, 40 days at −80 °C, 50 ng/mL, n = 6): −4.82% | Stability, RE (%) ([2]; rat plasma, 40 days at −80 °C, 160 ng/mL, n = 6): −6.91% | Stability, RE (%) ([2]; rat plasma, three freeze-thaw cycle, 5 ng/mL, n = 6): 8.97% | Stability, RE (%) ([2]; rat plasma, three freeze-thaw cycle, 50 ng/mL, n = 6): −5.58% | Stability, RE (%) ([2]; rat plasma, three freeze-thaw cycle, 160 ng/mL, n = 6): 4.24%
